# Laboratory results from PubChem BioAssay (NCI).
#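 Cultured in 96-well plates, cells were exposed to test compound for 48 hours across five concentrations. GI50: concentration for 50% inhibition of growth. The concentration for full growth arrest is given as TGI.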
# How the values were obtained:
# Experiment in all cases: inhibition of tumour cell growth, NCI panel, 48 h
# RPMI-8226 leukemia = system: RPMI-8226 leukemia
# NCI/ADR-RES ovarian = system: NCI/ADR-RES ovarian
# RXF 393 renal = system: RXF 393 renal
# MALME-3M melanoma = system: MALME-3M melanoma
# NCI-H226 lung = system: NCI-H226 lung
# MCF7 breast = system: MCF7 breast
# OVCAR-4 ovarian = system: OVCAR-4 ovarian
# SF-539 CNS = system: SF-539 CNS
# T-47D breast = system: T-47D breast
# COLO 205 colon = system: COLO 205 colon
# OVCAR-3 ovarian = system: OVCAR-3 ovarian
# CAKI-1 renal = system: CAKI-1 renal
# KM12 colon = system: KM12 colon
# MDA-MB-231 breast = system: MDA-MB-231 breast
# TK-10 renal = system: TK-10 renal
# SNB-19 CNS = system: SNB-19 CNS
# U251 CNS = system: U251 CNS
# K-562 leukemia = system: K-562 leukemia
# HL-60(TB) leukemia = system: HL-60(TB) leukemia
# SW-620 colon = system: SW-620 colon
# SK-MEL-2 melanoma = system: SK-MEL-2 melanoma
# M14 melanoma = system: M14 melanoma
# SNB-75 CNS = system: SNB-75 CNS
# SR leukemia = system: SR leukemia
# SF-268 CNS = system: SF-268 CNS
# MDA-MB-435 = system: MDA-MB-435
# 786-0 renal = system: 786-0 renal
# OVCAR-8 ovarian = system: OVCAR-8 ovarian
# HCT-116 colon = system: HCT-116 colon
# HS 578T breast = system: HS 578T breast
# CCRF-CEM leukemia = system: CCRF-CEM leukemia
# UACC-257 melanoma = system: UACC-257 melanoma
# HT29 colon = system: HT29 colon
# MOLT-4 leukemia = system: MOLT-4 leukemia
# EKVX NSCLC = system: EKVX NSCLC
# PC-3 prostate = system: PC-3 prostate
# SN12C renal = system: SN12C renal
# NCI-H522 lung = system: NCI-H522 lung
# NCI-H460 lung = system: NCI-H460 lung
# OVCAR-5 ovarian = system: OVCAR-5 ovarian
# HCC-2998 colon = system: HCC-2998 colon
# SK-MEL-5 melanoma = system: SK-MEL-5 melanoma
# A498 renal = system: A498 renal
# LOX IMVI melanoma = system: LOX IMVI melanoma
# NCI-H23 lung = system: NCI-H23 lung
# SK-MEL-28 melanoma = system: SK-MEL-28 melanoma
# BT-549 breast = system: BT-549 breast
# A549 NSCLC = system: A549 NSCLC
# SK-OV-3 ovarian = system: SK-OV-3 ovarian
# HCT-15 colon = system: HCT-15 colon
# IGROV1 ovarian = system: IGROV1 ovarian
# UACC-62 melanoma = system: UACC-62 melanoma
# HOP-62 NSCLC = system: HOP-62 NSCLC
# HOP-92 NSCLC = system: HOP-92 NSCLC
# SF-295 CNS = system: SF-295 CNS
# DU-145 prostate = system: DU-145 prostate
# UO-31 renal = system: UO-31 renal
compound,measurement,setting,value
COC(=O)c1c2c(c(C)[n+]([O-])c1C)C(=O)C=C(NCc1ccccc1)C2=O,GI50,RPMI-8226 leukemia,1360 nM
same,TGI,RPMI-8226 leukemia,4280 nM
same,GI50,NCI/ADR-RES ovarian,453 nM
same,TGI,NCI/ADR-RES ovarian,2950 nM
same,GI50,RXF 393 renal,1230 nM
same,TGI,RXF 393 renal,2730 nM
same,GI50,MALME-3M melanoma,147 nM
same,TGI,MALME-3M melanoma,353 nM
same,GI50,NCI-H226 lung,1780 nM
same,TGI,NCI-H226 lung,3740 nM
same,GI50,MCF7 breast,260 nM
same,TGI,MCF7 breast,892 nM
same,GI50,OVCAR-4 ovarian,283 nM
same,TGI,OVCAR-4 ovarian,1180 nM
same,GI50,SF-539 CNS,711 nM
same,TGI,SF-539 CNS,1940 nM
same,GI50,T-47D breast,316 nM
same,TGI,T-47D breast,1590 nM
same,GI50,COLO 205 colon,274 nM
same,TGI,COLO 205 colon,776 nM
same,GI50,OVCAR-3 ovarian,277 nM
same,TGI,OVCAR-3 ovarian,791 nM
same,GI50,CAKI-1 renal,1090 nM
same,TGI,CAKI-1 renal,3100 nM
same,GI50,KM12 colon,700 nM
same,TGI,KM12 colon,3340 nM
same,GI50,MDA-MB-231 breast,326 nM
same,TGI,MDA-MB-231 breast,2680 nM
same,GI50,TK-10 renal,2920 nM
same,TGI,TK-10 renal,7190 nM
same,GI50,SNB-19 CNS,1420 nM
same,TGI,SNB-19 CNS,2740 nM
same,GI50,U251 CNS,1330 nM
same,TGI,U251 CNS,3020 nM
same,GI50,K-562 leukemia,418 nM
same,TGI,K-562 leukemia,3050 nM
same,GI50,HL-60(TB) leukemia,317 nM
same,TGI,HL-60(TB) leukemia,1190 nM
same,GI50,SW-620 colon,375 nM
same,TGI,SW-620 colon,1540 nM
same,GI50,SK-MEL-2 melanoma,1250 nM
same,TGI,SK-MEL-2 melanoma,2820 nM
same,GI50,M14 melanoma,550 nM
same,TGI,M14 melanoma,1870 nM
same,GI50,SNB-75 CNS,1820 nM
same,TGI,SNB-75 CNS,3220 nM
same,GI50,SR leukemia,895 nM
same,TGI,SR leukemia,5660 nM
same,GI50,SF-268 CNS,1510 nM
same,TGI,SF-268 CNS,4470 nM
same,GI50,MDA-MB-435,202 nM
same,TGI,MDA-MB-435,391 nM
same,GI50,786-0 renal,2330 nM
same,TGI,786-0 renal,6880 nM
same,GI50,OVCAR-8 ovarian,408 nM
same,TGI,OVCAR-8 ovarian,2160 nM
same,GI50,HCT-116 colon,303 nM
same,TGI,HCT-116 colon,1050 nM
same,GI50,HS 578T breast,2190 nM
same,TGI,HS 578T breast,6880 nM
same,GI50,CCRF-CEM leukemia,668 nM
same,TGI,CCRF-CEM leukemia,3710 nM
same,GI50,UACC-257 melanoma,261 nM
same,TGI,UACC-257 melanoma,962 nM
same,GI50,HT29 colon,384 nM
same,TGI,HT29 colon,2780 nM
same,GI50,MOLT-4 leukemia,619 nM
same,TGI,MOLT-4 leukemia,2830 nM
same,GI50,EKVX NSCLC,1140 nM
same,TGI,EKVX NSCLC,2550 nM
same,GI50,PC-3 prostate,379 nM
same,TGI,PC-3 prostate,7340 nM
same,GI50,SN12C renal,356 nM
same,TGI,SN12C renal,1390 nM
same,GI50,NCI-H522 lung,1330 nM
same,TGI,NCI-H522 lung,3250 nM
same,GI50,NCI-H460 lung,872 nM
same,TGI,NCI-H460 lung,2730 nM
same,GI50,OVCAR-5 ovarian,1350 nM
same,TGI,OVCAR-5 ovarian,2700 nM
same,GI50,HCC-2998 colon,432 nM
same,TGI,HCC-2998 colon,1700 nM
same,GI50,SK-MEL-5 melanoma,206 nM
same,TGI,SK-MEL-5 melanoma,480 nM
same,GI50,A498 renal,1570 nM
same,TGI,A498 renal,2960 nM
same,GI50,LOX IMVI melanoma,340 nM
same,TGI,LOX IMVI melanoma,1530 nM
same,GI50,NCI-H23 lung,632 nM
same,TGI,NCI-H23 lung,2460 nM
same,GI50,SK-MEL-28 melanoma,1630 nM
same,TGI,SK-MEL-28 melanoma,3800 nM
same,GI50,BT-549 breast,1450 nM
same,TGI,BT-549 breast,2920 nM
same,GI50,A549 NSCLC,1100 nM
same,TGI,A549 NSCLC,3460 nM
same,GI50,SK-OV-3 ovarian,2030 nM
same,TGI,SK-OV-3 ovarian,4180 nM
same,GI50,HCT-15 colon,426 nM
same,TGI,HCT-15 colon,1800 nM
same,GI50,IGROV1 ovarian,492 nM
same,TGI,IGROV1 ovarian,1870 nM
same,GI50,UACC-62 melanoma,286 nM
same,TGI,UACC-62 melanoma,1210 nM
same,GI50,HOP-62 NSCLC,1490 nM
same,TGI,HOP-62 NSCLC,3190 nM
same,GI50,HOP-92 NSCLC,2170 nM
same,TGI,HOP-92 NSCLC,4370 nM
same,GI50,SF-295 CNS,1110 nM
same,TGI,SF-295 CNS,2350 nM
same,GI50,DU-145 prostate,1350 nM
same,TGI,DU-145 prostate,2680 nM
same,GI50,UO-31 renal,1350 nM
same,TGI,UO-31 renal,2650 nM
